Measurements as given in patent US10617672B2, “Liposome composition co-encapsulating doxorubicin and a prodrug of mitomycin C” (LIPOMEDIX PHARMACEUTICALS LTD., priority 2015, dated 2020).
Where two headings read alike, the source gives them in different places.

Tests used:
[1] = tested on: multidrug resistant M109R lung carcinoma cells; test: In vitro cytotoxicity, methylene blue staining, 72 h; type: cell-based; conditions: 72 hours at 37° C.
Protocol: (§1) For comparison, liposomes with entrapped doxorubicin with ammonium sulfate gradient and a coating of polyethyleneglycol (PEG) (available under the tradename DOXIL®), liposomes with the mitomycin C prodrug conjugate incorporated into the lipid bilayer and a coating of PEG (sometimes referred to in the literature by the tradename PROMITIL®) were also evaluated in the cell lines, along with free doxorubicin and liposomes with encapsulated doxorubicin with ammonium alendronate gradient and a coating of PEG (U.S. 2014/0328899, incorporated by reference herein).
(§2) In the cytotoxicity assay, cells were seeded in 96-multiwell plates. After overnight incubation, the drugs or liposome compositions were added at various concentrations and cells were incubated further for a total exposure of 72 hrs. Cell growth was evaluated colorimetrically with methylene blue staining and growth rates and IC50 values were calculated as known in the literature.

[2] = tested on: NCI/ADR cells; test: as above; type: cell-based; conditions: 72 hours at 37° C.
Protocol: as §1, §2

[3] = tested on: T-24 bladder cancer cells; test: Cell uptake of doxorubicin and mitomycin C prodrug conjugate; type: cell-based, human; conditions: T-24 cells, 3 hours of incubation; doxorubicin 6.5 μmoles/L (3.7 μg/mL), MLP 5 μmoles/L (5.7 μg/mL)
Protocol: In brief, the liposomal compositions or free doxorubicin were incubated for 3 hours with the cell lines at a doxorubicin concentration of 6.5 μmoles/L (3.7 μg/mL) and final mitomycin C lipid prodrug conjugate concentration of 5 μmoles/L (5.7 μg/mL).
Cell uptake studies were done as follows. 1×10^6 cells were incubated for 3 hours with the various test agents at a doxorubicin concentration of 6.5 μmoles/mL (3.7 μg/mL) and final mitomycin C lipid prodrug conjugate concentration of 5 μmoles/mL (5.7 μg/mL) and a phospholipid concentration similar to that of liposomes with entrapped doxorubicin (40 nanomoles/mL).

[4] = tested on: 4T1 breast tumor; test: Antitumor activity in mouse 4T1 breast tumor model; type: in vivo; conditions: BALB/c mice, single i.v. dose eight days after inoculation
Protocol: BALB/c mice were inoculated intravenously with 100,000 cells 4T1 breast cancer cells to produce tumors. Three were approximately eight tumor-bearing mice in each of the treatment groups.
Eight days after inoculation, the test formulations were administered intravenously.

[5] = tested on: N-87 gastric carcinoma cells; test: In vitro cytotoxicity, methylene blue staining, 72 h; type: cell-based, human; conditions: N-87 cells, 72 hours at 37° C.
Protocol: as §1, §2

[6] = tested on: T24 bladder cancer carcinoma cells; test: as above; type: cell-based, human; conditions: 72 hours at 37° C.
Protocol: as §1, §2

[7] = tested on: IGrov-1 ovarian carcinoma cells; test: as above; type: cell-based, human; conditions: IGrov-1 cells, 72 hours at 37° C.
Protocol: as §1, §2

[8] = as doxorubicin concentration, read-out: IC50 of doxorubicin
[9] = as mitomycin C concentration, read-out: IC50 of Mitomycin C

Compound	IC50 [1, 8] [nM]	IC50 [2, 8] [nM]	Doxorubicin Concentration [3] [ng/10^6 cells]	time after treatment at which tumor approached 5.5 mm [4] [days]	tumor growth (FIG. 15), in words ([4]; doses in Example 7)	IC50 [5, 8] [nM]	IC50 ([6]; as doxorubicin concentration, read-out: C50 of doxorubicin) [nM]	IC50 [7, 8] [nM]	IC50 [1, 9] [nM]	IC50 [2, 9] [nM]	IC50 [5, 9] [nM]	IC50 [6, 9] [nM]	IC50 [7, 9] [nM]
COc1cccc2c1C(=O)c1c(O)c3c(c(O)c1C2=O)C[C@@](O)(C(=O)CO)C[C@@H]3O[C@H]1C[C@H](N)[C@H](O)[C@H](C)O1 [free doxorubicin, doxorubicin]	8700	2500	739	10	continued and rapid tumor growth	190	100	1100	–	–	–	–	–
CO[C@@]12[C@H](COC(N)=O)C3=C(C(=O)C(C)=C(N)C3=O)N1C[C@@H]1N[C@@H]12 [free mitomycin C, mitomycin C]	–	–	–	–	–	–	–	–	300	400	180	50	700
